Legend:
Type in all cases: cell-based
PKC delta = PKC delta (Homo sapiens, UniProt Q05655); assay: Cellular assay of protein kinase C inhibition, PKC delta; parameters: key: *: IC 50 too high to be measured by apparatus
Procedure: (§1) CKC was tested on a cellular assay to evaluate the protein kinase C inhibition (PKC). Four subtypes of PKC are evaluated (α, β1, β2 and δ). Table 1. Cellular assay to evaluate the action of CKC on four subtypes of PKC.

PKC beta 2 = PKC beta 2 (Homo sapiens, UniProt P05771); assay: Cellular assay of protein kinase C inhibition, PKC beta 2; parameters: key: *: IC 50 too high to be measured by apparatus
Procedure: as §1

PKC alpha = PKC alpha (Homo sapiens, UniProt P17252); assay: Cellular assay of protein kinase C inhibition, PKC alpha; conditions: read-out: IC 50 PKC alpha
Procedure: as §1

PKC beta 1 = PKC beta 1 (Homo sapiens, UniProt P05771); assay: Cellular assay of protein kinase C inhibition, PKC beta 1; parameters: key: *: IC 50 too high to be measured by apparatus
Procedure: as §1

PKC beta 2, sequence (P05771 1-673 isoform P05771-2): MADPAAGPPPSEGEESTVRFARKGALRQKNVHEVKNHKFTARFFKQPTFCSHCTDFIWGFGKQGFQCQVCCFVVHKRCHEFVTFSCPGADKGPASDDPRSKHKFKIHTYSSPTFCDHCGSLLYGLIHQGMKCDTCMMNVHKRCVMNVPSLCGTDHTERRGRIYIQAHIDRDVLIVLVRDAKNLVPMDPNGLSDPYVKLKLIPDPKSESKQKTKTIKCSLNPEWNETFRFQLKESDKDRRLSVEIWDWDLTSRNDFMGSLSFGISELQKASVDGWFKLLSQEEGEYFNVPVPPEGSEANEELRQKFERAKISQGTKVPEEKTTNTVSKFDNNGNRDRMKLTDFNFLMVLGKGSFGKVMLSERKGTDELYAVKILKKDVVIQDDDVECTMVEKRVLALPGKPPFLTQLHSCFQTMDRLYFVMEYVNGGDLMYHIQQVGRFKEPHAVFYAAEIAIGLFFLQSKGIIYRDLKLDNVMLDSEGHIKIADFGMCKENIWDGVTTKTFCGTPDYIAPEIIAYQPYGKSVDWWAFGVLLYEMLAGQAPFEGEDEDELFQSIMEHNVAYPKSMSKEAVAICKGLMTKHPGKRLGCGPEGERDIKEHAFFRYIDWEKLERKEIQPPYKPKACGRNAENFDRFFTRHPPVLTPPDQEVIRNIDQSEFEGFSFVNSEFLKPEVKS
PKC beta 1, sequence (P05771 whole entry): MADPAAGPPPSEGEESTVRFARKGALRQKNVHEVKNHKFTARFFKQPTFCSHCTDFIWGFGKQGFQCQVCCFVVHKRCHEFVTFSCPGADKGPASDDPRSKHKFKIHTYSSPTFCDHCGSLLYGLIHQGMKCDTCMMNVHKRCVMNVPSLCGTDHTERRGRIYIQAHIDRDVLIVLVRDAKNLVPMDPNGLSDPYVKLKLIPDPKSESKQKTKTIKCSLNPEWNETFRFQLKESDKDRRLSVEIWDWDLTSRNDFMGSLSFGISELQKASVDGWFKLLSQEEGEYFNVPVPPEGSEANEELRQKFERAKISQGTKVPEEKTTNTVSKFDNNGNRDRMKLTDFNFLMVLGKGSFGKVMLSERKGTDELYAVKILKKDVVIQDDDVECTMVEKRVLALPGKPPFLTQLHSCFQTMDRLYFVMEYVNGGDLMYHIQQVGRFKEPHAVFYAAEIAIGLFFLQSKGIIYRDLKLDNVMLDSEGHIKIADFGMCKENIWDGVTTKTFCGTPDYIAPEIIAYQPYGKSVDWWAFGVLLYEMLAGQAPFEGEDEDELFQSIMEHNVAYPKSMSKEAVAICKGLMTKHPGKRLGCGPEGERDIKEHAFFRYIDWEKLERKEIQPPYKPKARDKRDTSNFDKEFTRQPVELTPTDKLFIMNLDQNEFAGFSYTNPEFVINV
PKC delta, sequence (Q05655 whole entry): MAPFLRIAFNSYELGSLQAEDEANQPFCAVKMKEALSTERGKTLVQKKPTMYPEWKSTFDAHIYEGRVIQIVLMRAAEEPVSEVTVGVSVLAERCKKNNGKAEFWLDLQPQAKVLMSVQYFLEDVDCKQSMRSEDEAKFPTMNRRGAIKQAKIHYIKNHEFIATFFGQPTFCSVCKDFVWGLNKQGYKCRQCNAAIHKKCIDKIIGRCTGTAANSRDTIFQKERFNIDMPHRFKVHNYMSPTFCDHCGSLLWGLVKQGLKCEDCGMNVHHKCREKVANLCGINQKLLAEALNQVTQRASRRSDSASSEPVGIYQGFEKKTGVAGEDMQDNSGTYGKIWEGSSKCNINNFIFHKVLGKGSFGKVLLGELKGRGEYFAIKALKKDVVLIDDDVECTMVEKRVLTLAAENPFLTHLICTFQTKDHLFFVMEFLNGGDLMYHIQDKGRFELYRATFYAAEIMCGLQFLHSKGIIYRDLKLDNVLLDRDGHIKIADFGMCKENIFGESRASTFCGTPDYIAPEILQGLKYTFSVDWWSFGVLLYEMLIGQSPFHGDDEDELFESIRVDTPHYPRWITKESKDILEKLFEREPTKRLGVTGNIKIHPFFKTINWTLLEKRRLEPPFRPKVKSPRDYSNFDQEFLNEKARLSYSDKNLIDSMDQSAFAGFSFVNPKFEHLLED

IC 50 PKC delta (PKC delta): * | IC 50 PKC beta 2 (PKC beta 2): * | IC50 (PKC alpha): 4.29 µM | IC 50 PKC beta 1 (PKC beta 1): *
SMILES: CCCCCCCCCCCCCCCC[N+](C)(C)Cc1ccccc1 [CKC, cetalkonium chloride]
